Test results taken from patent US7790697B2, “Compositions and methods for inhibiting the synthesis or expression of MMP-1” (Trustees of Dartmouth College, priority 2004, dated 2010).

Columns and labels:
[1] = system: MDA-231 cells in type I collagen gel; experiment: In vitro collagen gel destruction assay; format: cell-based; details: empty vector MDA-231 cells, 36 hours
Procedure: In vitro Collagen Gel Destruction Assay. Collagen preparations were carried out on ice to prevent premature jelling. A solution of purified type I bovine collagen (Cohesion Technologies, Palo Alto, Calif.) was neutralized with a sterile 10× phosphate-buffered saline (pH 7.4), and 0.1 M NaOH. The solution of neutralized collagen (2 mg/mL) was mixed with an equivalent volume of cells suspended in serum free DMEM to yield a final concentration of 2×10^5 cells/mL in 1 mg/mL fibrillar collagen, and 1 mL of the collagen/cell mixture was added to each well of a six-well plate. After approximately 1 hour, the collagen jelled, and 1 mL of serum-free media was added on top of the gel. For some experiments, 25 μM ILOMASTAT® (CHEMICON®, Temecula, Calif.), 50 U/mL aprotinin (Sigma, St. Louis, Mo.), 1 μg/mL neutralizing MMP-1 antibody (MMP-1 ab-5; ONCOGENE™ Research Products, San Diego, Calif.), 1 μg/mL monoclonal FLAG® antibody (Sigma, St. Louis, Mo.), or 1% DMSO were added to the collagen before it jelled. After 36 hours of incubation at 37° C. the medium was removed from the top of collagen gels and weighed. The weight of media added at the start of the 37° C. incubation (1 gram) was subtracted from the total media weights to reveal the amount of media liberated by collagen gel destruction.
An in vitro collagen destruction assay was developed to determine whether the MMP-1 levels in MDA-231 cells with the empty vector were functionally capable of degrading a collagen matrix, and whether the shRNA-mediated reduction in MMP-1 was sufficient to change the invasive behavior of the cells. MDA-231 cells harboring either the empty vector or the MMP-1 shRNA were embedded in a solution of type I collagen (1 mL). The collagen was allowed to solidify at 37° C., and 1 mL of serum-free medium was layered on top of each gel. After 36 hours at 37° C., the medium was removed from each well and photographs were taken. No collagen was visible in wells containing MDA-231 cells with the empty vector. […] The medium removed from each well was weighed to quantitate the amount of medium liberated as the gel was destroyed. After 36 hours, approximately 1 mL (0.8±0.06 grams) of medium was liberated from the collagen gels containing the MDA-231 cells with the empty vector. […] Conversely, no medium (−0.01±0.03 grams) was liberated from collagen gels containing MDA-231 cells producing the MMP-1 shRNA. The slight decrease in the volume of medium recovered may be due to evaporation of the medium during the incubation period.

MMP-1 protein = experiment: Western blot of MMP-1 protein in culture medium; format: cell-based, human; details: empty vector MDA-231 cells in collagen gel; 50 U/mL; 24 hours
Procedure: Western Blot Analysis. MDA-231 cells were cultured in 1 mL serum-free DMEM/F12 medium in six-well plates in the presence or absence of a collagen gel, with or without aprotinin (50 U/mL; Sigma, St. Louis, Mo.). After 24 hours, medium was harvested, proteins precipitated with cold 10% trichloroacetic acid, and resuspended in 50 μL SDS loading buffer (PROMEGA®, Madison, Wis.). Following SDS-PAGE and transfer to a PVDF membrane (IMMOBILON™-P; MILLIPORE™, Bedford, Mass.), the membrane was incubated in a 5% milk, Tris-buffered saline solution with 0.1% TWEEN™ (milk TBST) for 1 hour. The membrane was probed with a MMP-1 polyclonal antibody (CHEMICON®, Temecula, Calif.) diluted 1:5000 in milk TBST overnight at 4° C. The membrane was washed three times with TBST, and a 1:2000 dilution of goat anti-rabbit horseradish peroxidase (HRP) conjugated antibody (CELL SIGNALING TECHNOLOGY®, Beverly, Mass.) in milk TBST was added for 60 minutes. The blot was washed three times with TBST, and HRP activity was detected with the WESTERN LIGHTNING® chemiluminescence reagent according to the manufacturer's instructions (PERKINELMER®, Boston, Mass.).
The three MMPs primarily responsible for degrading type 1 collagen are MMP-1, MMP-13, and the membrane bound MT1-MMP (Stamenkovic (2003) J. Pathol. 200:448-64). […]

MDA-231 cells = experiment: Creation and subcloning of stable MDA-231 cell lines; format: cell-based; details: PSUPER-retro plasmid, G418 selection and subcloning
Procedure: Transfection of NIH/3T3 and MDA-231 Cells. NIH/3T3 cells were transiently transfected with LIPOFECTAMINE™ 2000 (INVITROGEN™, Carlsbad, Calif.) along with 0.5 μg peGFP, 0.5 μg pCMV-MMP-1, and 2 μg PSUPER™-MMP-1 shRNA or PSUPER™ with no insert. Transfection efficiency was monitored using eGFP signal. Total cellular RNA was harvested 48 hours after transfection and analyzed for MMP-1 mRNA by real-time RT-PCR. MDA-231 cells were stably transfected in triplicate with LIPOFECTAMINE™ 2000 (INVITROGEN™, Carlsbad, Calif.) and 2 μg of the PSUPER™.Retro.Neo.GFP plasmid containing the MMP-1 shRNA, the scrambled sequence or just the empty vector. Stable cell lines were selected by growth in the presence of 1 mg/mL G418 (STRATAGENE®, La Jolla, Calif.). Individual, stable cell lines were isolated with cloning disks according to the manufacturer's instructions (PGC Scientifics, Frederick, Md.).
Three groups of stable MDA-231 cell lines were created. One group contained only the PSUPER™-retro plasmid, a second group contained a PSUPER™-retro plasmid with the scrambled shRNA sequence, and the third contained a PSUPER™-retro plasmid with the MMP-1 shRNA oligonucleotide.

Which “medium liberated from collagen gels” value ([1]; 50 U/mL collagen embedded) does the source give for aprotinin [reference compound] here?
Its value is 0.01±0.1 grams.

What about the “MMP-1 bands in medium / activation of proMMP-1 (western blot)” value (MMP-1 protein) of the same compound?
The value was “only the higher molecular weight zymogen band”.

How did the “medium liberated from collagen gels” value ([1]; 25 μM/gel inhibitor embedded) turn out when CNC(=O)[C@H](Cc1c[nH]c2ccccc12)NC(=O)[C@@H](CC(=O)NO)CC(C)C [ILOMASTAT®, ILOMASTAT, reference compound] was run?
The value was −0.1±0.08 grams.

Which “growth and survival of stably transfected cells” value (MDA-231 cells) does the source give for “scrambled shRNA: Control shRNA with identical hairpin loop and linker, sequence not complementary to any human gene (SEQ ID NO:6) (AAGTGGAGGGACGTATGCA; the letters are possibly those of the target site)” here?
Its value is “did not grow well, and did not survive the subcloning procedures”.
